One assay addresses T1, human PAC1 (Homo sapiens, UniProt P41586).
T1 construct: 3xHA (N)
T1 sequence (P41586 21-468): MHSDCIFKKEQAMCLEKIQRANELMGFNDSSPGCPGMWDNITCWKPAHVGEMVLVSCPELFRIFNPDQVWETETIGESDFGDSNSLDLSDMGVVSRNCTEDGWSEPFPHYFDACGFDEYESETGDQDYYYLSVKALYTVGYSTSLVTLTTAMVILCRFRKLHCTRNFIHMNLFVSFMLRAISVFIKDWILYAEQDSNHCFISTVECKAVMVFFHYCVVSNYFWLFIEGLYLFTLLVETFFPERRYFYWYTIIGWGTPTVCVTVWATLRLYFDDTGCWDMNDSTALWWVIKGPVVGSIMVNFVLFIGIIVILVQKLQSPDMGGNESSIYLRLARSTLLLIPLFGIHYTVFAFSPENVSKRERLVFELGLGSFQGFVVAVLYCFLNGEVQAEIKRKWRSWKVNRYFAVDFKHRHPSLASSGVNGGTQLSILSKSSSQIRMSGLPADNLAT
Put plainly: cAMP accumulation assay in PAC1-CHO cells. Type of assay: cell-based. The settings on record: for EC50: cAMP stimulation, CHO cells stably expressing human PAC1, 500 μM IBMX, 10 min agonist at 37 °C, 3H-cAMP/PKA competition read-out, Table 3, control has two values (two experiments). The procedure: In Vitro cAMP Accumulation
(§1) DMEM:F12 (1:1)medium, incubated
(§2) Serial dilutions of different

The target of another assay is T2, human VPAC2 (Homo sapiens, UniProt P41587).
T2 construct: 3xHA (N)
T2 sequence (P41587 24-438): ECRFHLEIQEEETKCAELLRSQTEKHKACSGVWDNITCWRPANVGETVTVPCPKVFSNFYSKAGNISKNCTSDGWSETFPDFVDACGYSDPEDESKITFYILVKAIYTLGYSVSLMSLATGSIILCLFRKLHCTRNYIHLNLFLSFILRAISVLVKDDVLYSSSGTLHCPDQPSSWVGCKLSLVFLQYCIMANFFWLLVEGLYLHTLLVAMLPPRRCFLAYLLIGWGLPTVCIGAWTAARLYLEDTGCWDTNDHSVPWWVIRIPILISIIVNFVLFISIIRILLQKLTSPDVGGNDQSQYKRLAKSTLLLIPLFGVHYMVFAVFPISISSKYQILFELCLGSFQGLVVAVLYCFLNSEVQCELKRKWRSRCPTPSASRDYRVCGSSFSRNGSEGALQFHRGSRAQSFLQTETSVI
Put plainly: cAMP accumulation assay in VPAC2-CHO cells. Type of assay: cell-based. Here is the method: as §1, §2
(Changes in cAMP serve as a functional read-out for many G protein-coupled receptors.)

The target in another assay is T3, human VPAC1 (Homo sapiens, UniProt P32241).
T3 sequence (P32241 31-457): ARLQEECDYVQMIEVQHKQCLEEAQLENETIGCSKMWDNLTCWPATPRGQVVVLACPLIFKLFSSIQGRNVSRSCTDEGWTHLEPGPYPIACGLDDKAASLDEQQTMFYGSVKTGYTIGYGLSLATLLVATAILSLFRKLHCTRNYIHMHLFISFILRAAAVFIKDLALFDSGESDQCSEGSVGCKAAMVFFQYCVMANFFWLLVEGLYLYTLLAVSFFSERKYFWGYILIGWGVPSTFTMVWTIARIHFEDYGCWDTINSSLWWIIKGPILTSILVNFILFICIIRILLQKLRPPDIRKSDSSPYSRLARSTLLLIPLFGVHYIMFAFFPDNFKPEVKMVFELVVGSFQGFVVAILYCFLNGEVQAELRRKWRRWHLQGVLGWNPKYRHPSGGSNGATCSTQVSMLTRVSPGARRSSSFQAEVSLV
Briefly: cAMP accumulation assay in VPAC1-CHO cells. The settings on record: for Emax: read-out: VPAC1 EMAX.

The mark [1] stands for this setting: HA-VPAC2-CHO passage #28, 20,000 cells/well, dilutions from 10 uM, single experiment in duplicate, supplement page S13, read-out: VPAC2-CHO EC50(nM), supplement curve fit.
[2] abbreviates: cAMP stimulation, CHO cells stably expressing human VPAC2, 500 μM IBMX, 10 min agonist at 37 °C, Table 3, NC = No convergence, read-out: VPAC2 EC50.

Like-named read-outs stand apart in the source and are kept apart here. Non-standard residues stand in square brackets, D forms with d. Residues, ends and D or L forms follow the SMILES beside them. *: point of attachment. X1 = OC[C@H]1O[C@@H](O[C@H]2[C@H](O)[C@@H](O)[C@H](*)O[C@@H]2CO)[C@H](O)[C@@H](O)[C@H]1O; Nva = CCC[C@H](N)C(=O)O; Sar = CNCC(=O)O

This is an account of results in article PMC8401035, “Synthesis and In Vitro Characterization of Glycopeptide Drug Candidates Related to PACAP1–23” (Molecules, 2021).

Take `CCC[C@H](NC(=O)[C@H](CCC(N)=O)NC(=O)[C@H](CCCCN)NC(=O)[C@H](CCCNC(=N)N)NC(=O)[C@H](Cc1ccc(O)cc1)NC(=O)[C@H](CCCNC(=N)N)NC(=O)[C@H](CO)NC(=O)[C@H](Cc1ccc(O)cc1)NC(=O)[C@H](CO)NC(=O)[C@H](CC(=O)O)NC(=O)[C@@H](NC(=O)[C@H](Cc1ccccc1)NC(=O)[C@@H](NC(=O)CNC(=O)[C@H](CC(=O)O)NC(=O)[C@H](CO)NC(=O)[C@@H](N)Cc1c[nH]cn1)[C@@H](C)CC)[C@@H](C)O)C(=O)N[C@@H](C)C(=O)N[C@H](C(=O)N[C@@H](CCCCN)C(=O)N[C@@H](CCCCN)C(=O)N[C@@H](Cc1ccc(O)cc1)C(=O)N[C@@H](CC(C)C)C(=O)N[C@@H](CO)C(N)=O)C(C)C` [Compound 1]: the Emax came out at 198% at human PAC1, 111% at human VPAC2 and 42% at human VPAC1. Besides, the EC50 is 2.2 nM at human PAC1, 576 nM on human VPAC2 (setting [1]) and 5.2 nM at human VPAC1.
Take `CCC[C@H](NC(=O)[C@H](CCC(N)=O)NC(=O)[C@H](CCCCN)NC(=O)[C@H](CCCNC(=N)N)NC(=O)[C@H](Cc1ccc(O)cc1)NC(=O)[C@H](CCCNC(=N)N)NC(=O)[C@H](CO)NC(=O)[C@H](Cc1ccc(O)cc1)NC(=O)[C@H](CO)NC(=O)[C@H](CC(=O)O)NC(=O)[C@@H](NC(=O)[C@H](Cc1ccccc1)NC(=O)[C@@H](NC(=O)CNC(=O)[C@H](CC(=O)O)NC(=O)[C@H](CO)NC(=O)[C@@H](N)Cc1c[nH]cn1)[C@@H](C)CC)[C@@H](C)O)C(=O)N[C@@H](C)C(=O)N[C@H](C(=O)N[C@@H](CCCCN)C(=O)N[C@@H](CCCCN)C(=O)N[C@@H](Cc1ccc(O)cc1)C(=O)N[C@@H](CC(C)C)C(=O)N[C@@H](CO[C@@H]1O[C@H](CO)[C@@H](O)[C@H](O)[C@H]1O)C(N)=O)C(C)C` [Compound 2]: the maximum response (Emax) stood at 181% at human PAC1, 110% on human VPAC2 and 104% on human VPAC1. In addition, the concentration giving a half-maximal response (EC50) at human PAC1 was 0.64 nM; on human VPAC2 (setting [1]), 577 nM; at human VPAC1, 37 nM. In addition, the “selectivity for PAC1 over VPAC1” value on human PAC1 (ratio of cAMP EC50 values (VPAC1/PAC1)) is recorded as ~ 58 fold. Also, the “selectivity for PAC1 over VPAC2” value at human PAC1 (ratio of cAMP EC50 values (VPAC2/PAC1)) is listed as ~ 886 fold.
`CCC[C@H](NC(=O)[C@H](CCC(N)=O)NC(=O)[C@H](CCCCN)NC(=O)[C@H](CCCNC(=N)N)NC(=O)[C@H](Cc1ccc(O)cc1)NC(=O)[C@H](CCCNC(=N)N)NC(=O)[C@H](CO)NC(=O)[C@H](Cc1ccc(O)cc1)NC(=O)[C@H](CO)NC(=O)[C@H](CC(=O)O)NC(=O)[C@@H](NC(=O)[C@H](Cc1ccccc1)NC(=O)[C@@H](NC(=O)CNC(=O)[C@H](CC(=O)O)NC(=O)[C@H](CO)NC(=O)[C@@H](N)Cc1c[nH]cn1)[C@@H](C)CC)[C@@H](C)O)C(=O)N[C@@H](C)C(=O)N[C@H](C(=O)N[C@@H](CCCCN)C(=O)N[C@@H](CCCCN)C(=O)N[C@@H](Cc1ccc(O)cc1)C(=O)N[C@@H](CC(C)C)C(=O)N[C@@H](CO[C@@H]1O[C@H](CO)[C@@H](O)[C@H](O)[C@H]1O)C(=O)N[C@@H](CO[C@@H]1O[C@H](CO)[C@@H](O)[C@H](O)[C@H]1O)C(N)=O)C(C)C` [Compound 3]: the Emax was determined as 152% on human PAC1, 128% at human VPAC2 and 147% on human VPAC1. For the same molecule, the EC50 at human PAC1 came to 1.9 nM; at human VPAC2 (setting [2]), 7370 nM; on human VPAC1, 26 nM.
Turning to `CCC[C@H](NC(=O)[C@H](CCC(N)=O)NC(=O)[C@H](CCCCN)NC(=O)[C@H](CCCNC(=N)N)NC(=O)[C@H](Cc1ccc(O)cc1)NC(=O)[C@H](CCCNC(=N)N)NC(=O)[C@H](CO)NC(=O)[C@H](Cc1ccc(O)cc1)NC(=O)[C@H](CO)NC(=O)[C@H](CC(=O)O)NC(=O)[C@@H](NC(=O)[C@H](Cc1ccccc1)NC(=O)[C@@H](NC(=O)CNC(=O)[C@H](CC(=O)O)NC(=O)[C@H](CO)NC(=O)[C@@H](N)Cc1c[nH]cn1)[C@@H](C)CC)[C@@H](C)O)C(=O)N[C@@H](C)C(=O)N[C@H](C(=O)N[C@@H](CCCCN)C(=O)N[C@@H](CCCCN)C(=O)N[C@@H](Cc1ccc(O)cc1)C(=O)N[C@@H](CC(C)C)C(=O)N[C@@H](CO[C@@H]1O[C@H](CO)[C@@H](O[C@@H]2O[C@H](CO)[C@H](O)[C@H](O)[C@H]2O)[C@H](O)[C@H]1O)C(N)=O)C(C)C` [Compound 4], the Emax came to 174% at human PAC1, 169% on human VPAC2 and 118% on human VPAC1. Further, the 50% effective concentration (EC50) at human PAC1 was 1.8 nM; at human VPAC2 (setting [2]), 1940 nM; at human VPAC1, 21 nM.
In the case of `CCC[C@H](NC(=O)[C@H](CCC(N)=O)NC(=O)[C@H](CCCCN)NC(=O)[C@H](CCCNC(=N)N)NC(=O)[C@H](Cc1ccc(O)cc1)NC(=O)[C@H](CCCNC(=N)N)NC(=O)[C@H](CO)NC(=O)[C@H](Cc1ccc(O)cc1)NC(=O)[C@H](CO)NC(=O)[C@H](CC(=O)O)NC(=O)[C@@H](NC(=O)[C@H](Cc1ccccc1)NC(=O)[C@@H](NC(=O)[C@H](C)NC(=O)[C@H](CC(=O)O)NC(=O)[C@H](CO)NC(=O)[C@@H](N)Cc1c[nH]cn1)[C@@H](C)CC)[C@@H](C)O)C(=O)N[C@@H](C)C(=O)N[C@H](C(=O)N[C@@H](CCCCN)C(=O)N[C@@H](CCCCN)C(=O)N[C@@H](Cc1ccc(O)cc1)C(=O)N[C@@H](CC(C)C)C(=O)N[C@@H](CO[C@@H]1O[C@H](CO)[C@@H](O[C@@H]2O[C@H](CO)[C@H](O)[C@H](O)[C@H]2O)[C@H](O)[C@H]1O)C(N)=O)C(C)C` [Compound 5], the figures for the maximal response (Emax) at human PAC1, at human VPAC2 and at human VPAC1 were 181%, 139% and 124%, respectively. The EC50 on human PAC1 was 7 nM; at human VPAC2 (setting [2]) it was 321 nM; on human VPAC1 it was 38 nM.
As for `CCC[C@H](NC(=O)[C@H](CCC(N)=O)NC(=O)[C@H](CCCCN)NC(=O)[C@H](CCCNC(=N)N)NC(=O)[C@H](Cc1ccc(O)cc1)NC(=O)[C@H](CCCNC(=N)N)NC(=O)[C@H](CO)NC(=O)[C@H](Cc1ccc(O)cc1)NC(=O)[C@H](CO)NC(=O)[C@H](CC(=O)O)NC(=O)[C@@H](NC(=O)[C@H](Cc1ccccc1)NC(=O)[C@@H](NC(=O)CN(C)C(=O)[C@H](CC(=O)O)NC(=O)[C@H](CO)NC(=O)[C@@H](N)Cc1c[nH]cn1)[C@@H](C)CC)[C@@H](C)O)C(=O)N[C@@H](C)C(=O)N[C@H](C(=O)N[C@@H](CCCCN)C(=O)N[C@@H](CCCCN)C(=O)N[C@@H](Cc1ccc(O)cc1)C(=O)N[C@@H](CC(C)C)C(=O)N[C@@H](CO[C@@H]1O[C@H](CO)[C@@H](O[C@@H]2O[C@H](CO)[C@H](O)[C@H](O)[C@H]2O)[C@H](O)[C@H]1O)C(N)=O)C(C)C` [Compound 6] (H-HSD[Sar]IFTDSYSRYRKQ[Nva]AVKKYLS(X1)-NH2), the maximal effect (Emax) stood at 134% at human PAC1 and 107% at human VPAC1. In addition, the EC50 on human PAC1 was determined as 67 nM; at human VPAC1, 195 nM.

Broadly, the Emax is the greatest response seen or fitted, relative to the assay's reference. As a reminder, the EC50 is the concentration needed to bring the measured effect to its halfway point.
